Values after ≈ are worked out from the molar mass of the structure shown.
How the values were obtained:
[1] = test system: Staphylococcus epidermidis; test: Antibacterial activity against Staphylococcus epidermidis H 6966/08 after 24 hrs by broth microdilution method; assay type: functional; conditions: H 6966/08, 24 h
[2] = test system: Staphylococcus aureus; test: Antibacterial activity against Staphylococcus aureus ATCC 6538 after 24 hrs by broth microdilution method; assay type: functional; conditions: ATCC 6538, 24 h
[3] = test system: Staphylococcus aureus; test: Antibacterial activity against methicillin-resistant Staphylococcus aureus H 5996/08 after 24 hrs by broth microdilution method; assay type: functional; conditions: H 5996/08, 24 h
[4] = test system: Enterococcus faecalis; test: Antibacterial activity against Enterococcus faecalis J 14365/08 after 24 hrs by broth microdilution method; assay type: functional; conditions: J 14365/08, 24 h
[5] = test system: Aspergillus fumigatus; test: Antifungal activity against Aspergillus fumigatus 231 after 24 hrs by broth microdilution method; assay type: functional, organism-based; conditions: Aspergillus fumigatus, 231, 24 h
[6] = test system: Trichophyton mentagrophytes; test: Antifungal activity against Trichophyton mentagrophytes 445 after 72 hrs by broth microdilution method; assay type: functional, organism-based; conditions: Trichophyton mentagrophytes, 445, 72 h
[7] = test system: Candida tropicalis; test: Antifungal activity against Candida tropicalis 156 after 24 hrs by broth microdilution method; assay type: functional; conditions: Candida tropicalis, 156, 24 h
[8] = test system: Lichtheimia corymbifera; test: Antifungal activity against Absidia corymbifera 272 after 24 hrs by broth microdilution method; assay type: functional, organism-based; conditions: Lichtheimia corymbifera, 272, 24 h
[9] = test system: Trichosporon asahii; test: Antifungal activity against Trichosporon asahii 1188 after 24 hrs by broth microdilution method; assay type: functional; conditions: Trichosporon asahii, 1188, 24 h
[10] = test system: Pichia kudriavzevii; test: Antifungal activity against Candida krusei E28 after 24 hrs by broth microdilution method; assay type: functional; conditions: E28, 24 h
[11] = test system: Candida albicans; test: Antifungal activity against Candida albicans ATCC 44859 after 24 hrs by broth microdilution method; assay type: functional; conditions: ATCC 44859, 24 h
[12] = test system: Klebsiella pneumoniae; test: Antibacterial activity against Klebsiella pneumoniae D 11750/08 after 48 hrs by broth microdilution method; assay type: functional; conditions: D 11750/08, 48 h
[13] = test system: Mycobacterium kansasii; test: Antimycobacterial activity against Mycobacterium kansasii 6509/96 after 21 days by micromethod; assay type: functional; conditions: 6509/96, 504 h
[14] = test system: Mycobacterium kansasii; test: Antimycobacterial activity against Mycobacterium kansasii CNCTC My 235/80 after 7 days by micromethod; assay type: functional; conditions: CNCTC My 235/80, 168 h
[15] = test system: Nakaseomyces glabratus; test: Antifungal activity against Candida glabrata 20/I after 48 hrs by broth microdilution method; assay type: functional
[16] = test system: Pseudomonas aeruginosa; test: Antibacterial activity against Pseudomonas aeruginosa ATCC 9027 after 24 hrs by broth microdilution method; assay type: functional
[17] = test system: Mycobacterium kansasii; test: Antimycobacterial activity against Mycobacterium kansasii 6509/96 after 7 days by micromethod; assay type: functional; conditions: 6509/96, 168 h
[18] = test system: Nakaseomyces glabratus; test: Antifungal activity against Candida glabrata 20/I after 24 hrs by broth microdilution method; assay type: functional
[19] = test system: Escherichia coli; test: Antibacterial activity against Escherichia coli ATCC 8739 after 48 hrs by broth microdilution method; assay type: functional; conditions: ATCC 8739, ATCC 8739, 48 h
[20] = test system: Mycobacterium avium; test: Antimycobacterial activity against Mycobacterium avium CNCTC My 330/88 after 14 days by micromethod; assay type: functional; conditions: CNCTC My 330/88, 336 h
[21] = test system: Klebsiella pneumoniae; test: Antibacterial activity against extended spectrum beta-lactamase producing Klebsiella pneumoniae J 14368/08 after 48 hrs by broth microdilution method; assay type: functional; conditions: J 14368/08, 48 h
[22] = test system: Mycobacterium kansasii; test: Antimycobacterial activity against Mycobacterium kansasii 6509/96 after 14 days by micromethod; assay type: functional; conditions: 6509/96, 336 h
[23] = test system: Mycobacterium kansasii; test: Antimycobacterial activity against Mycobacterium kansasii CNCTC My 235/80 after 14 days by micromethod; assay type: functional; conditions: CNCTC My 235/80, 336 h
[24] = test system: Trichophyton mentagrophytes; test: Antifungal activity against Trichophyton mentagrophytes 445 after 120 hrs by broth microdilution method; assay type: functional, organism-based; conditions: Trichophyton mentagrophytes, 445, 120 h
[25] = test system: Candida albicans; test: Antifungal activity against Candida albicans ATCC 44859 after 48 hrs by broth microdilution method; assay type: functional; conditions: ATCC 44859, 48 h
[26] = test system: Klebsiella pneumoniae; test: Antibacterial activity against extended spectrum beta-lactamase producing Klebsiella pneumoniae J 14368/08 after 24 hrs by broth microdilution method; assay type: functional
[27] = test system: Trichosporon asahii; test: Antifungal activity against Trichosporon asahii 1188 after 48 hrs by broth microdilution method; assay type: functional; conditions: Trichosporon asahii, 1188, 48 h
[28] = test system: Mycobacterium tuberculosis; test: Antimycobacterial activity against Mycobacterium tuberculosis CNCTC My 331/88 after 14 days by micromethod; assay type: functional; conditions: CNCTC My 331/88, 336 h
[29] = test system: Staphylococcus epidermidis; test: Antibacterial activity against Staphylococcus epidermidis H 6966/08 after 48 hrs by broth microdilution method; assay type: functional; conditions: H 6966/08, 48 h
[30] = test system: Staphylococcus aureus; test: Antibacterial activity against Staphylococcus aureus ATCC 6538 after 48 hrs by broth microdilution method; assay type: functional; conditions: ATCC 6538, 48 h
[31] = test system: Pichia kudriavzevii; test: Antifungal activity against Candida krusei E28 after 48 hrs by broth microdilution method; assay type: functional; conditions: E28, 48 h
[32] = test system: Enterococcus faecalis; test: Antibacterial activity against Enterococcus faecalis J 14365/08 after 48 hrs by broth microdilution method; assay type: functional; conditions: J 14365/08, 48 h
[33] = test system: Klebsiella pneumoniae; test: Antibacterial activity against Klebsiella pneumoniae D 11750/08 after 24 hrs by broth microdilution method; assay type: functional
[34] = test system: Mycobacterium avium; test: Antimycobacterial activity against Mycobacterium avium CNCTC My 330/88 after 21 days by micromethod; assay type: functional; conditions: CNCTC My 330/88, 504 h
[35] = test system: Mycobacterium kansasii; test: Antimycobacterial activity against Mycobacterium kansasii CNCTC My 235/80 after 21 days by micromethod; assay type: functional; conditions: CNCTC My 235/80, 504 h
[36] = test system: Pseudomonas aeruginosa; test: Antibacterial activity against Pseudomonas aeruginosa ATCC 9027 after 48 hrs by broth microdilution method; assay type: functional; conditions: ATCC 9027, 48 h
[37] = test system: Aspergillus fumigatus; test: Antifungal activity against Aspergillus fumigatus 231 after 48 hrs by broth microdilution method; assay type: functional, organism-based; conditions: Aspergillus fumigatus, 231, 48 h
[38] = test system: Candida tropicalis; test: Antifungal activity against Candida tropicalis 156 after 48 hrs by broth microdilution method; assay type: functional; conditions: Candida tropicalis, 156, 48 h
[39] = test system: Staphylococcus aureus; test: Antibacterial activity against methicillin-resistant Staphylococcus aureus H 5996/08 after 48 hrs by broth microdilution method; assay type: functional; conditions: H 5996/08, 48 h
[40] = test system: Mycobacterium tuberculosis; test: Antimycobacterial activity against Mycobacterium tuberculosis CNCTC My 331/88 after 21 days by micromethod; assay type: functional; conditions: CNCTC My 331/88, 504 h
[41] = test system: Escherichia coli; test: Antibacterial activity against Escherichia coli ATCC 8739 after 24 hrs by broth microdilution method; assay type: functional
[42] = test system: Lichtheimia corymbifera; test: Antifungal activity against Absidia corymbifera 272 after 48 hrs by broth microdilution method; assay type: functional, organism-based; conditions: Lichtheimia corymbifera, 272, 48 h

Work on CN[C@H](CC(C)C)C(=O)N[C@H]1C(=O)N[C@@H](CC(N)=O)C(=O)N[C@H]2C(=O)N[C@H]3C(=O)N[C@H](C(=O)N[C@H](C(=O)O)c4cc(O)cc(O)c4-c4cc3ccc4O)[C@H](O)c3ccc(c(Cl)c3)Oc3cc2cc(c3O[C@@H]2O[C@H](CO)[C@@H](O)[C@H](O)[C@H]2O[C@H]2C[C@](C)(N)[C@H](O)[C@H](C)O2)Oc2ccc(cc2Cl)[C@H]1O [VANCOMYCIN] yielded an IC95 [1] of 0.35 µM, an IC95 [2] of 0.35 µM and an IC95 [3] of 0.35 µM. The IC95 [4] was 0.7 µM.
With OC(Cn1cncn1)(Cn1cncn1)c1ccc(F)cc1F [FLUCONAZOLE] the IC50 [5] was greater than 500 µM, the IC50 [6] was 105 µM and the IC80 [7] was 1.6 µM. The IC50 [8] was greater than 500 µM, the IC80 [9] was 210 µM and the IC80 [10] was 105 µM. The IC80 [11] was 0.82 µM.
O=C(O)c1cccc(-n2nnnc2SCc2cc([N+](=O)[O-])cc([N+](=O)[O-])c2)c1 was tested, and the IC95 [1] was 500 µM, the IC95 [12] was greater than 500 µM and the IC95 [2] was greater than 500 µM. For the same molecule, the IC50 [5] was greater than 500 µM, the IC50 [6] was greater than 500 µM and the MIC [13] was 1000 µM (≈ 402 µg/mL). The MIC [14] was 500 µM (≈ 201 µg/mL), the IC80 [15] was greater than 500 µM and the IC95 ([16]; ATCC 9027, 24 h) was greater than 500 µM. The IC80 [7] was greater than 500 µM, the MIC [17] was 1000 µM (≈ 402 µg/mL) and the IC80 [18] was greater than 500 µM. For the same molecule, the IC95 [19] was greater than 500 µM, the MIC [20] was 1000 µM (≈ 402 µg/mL) and the IC95 [21] was greater than 500 µM. It also gave an MIC [22] of 1000 µM (≈ 402 µg/mL), an MIC [23] of 1000 µM (≈ 402 µg/mL) and an IC95 [3] greater than 500 µM. The IC50 [24] was greater than 500 µM, the IC80 [25] was greater than 500 µM and the IC95 ([26]; J 14368/08, 24 h) was greater than 500 µM. It also gave an IC80 [27] greater than 500 µM, an MIC [28] of 1000 µM (≈ 402 µg/mL) and an IC95 [29] greater than 500 µM. It also gave an IC95 [30] greater than 500 µM, an IC80 [31] greater than 500 µM and an IC50 [8] greater than 500 µM. For the same molecule, the IC95 [32] was greater than 500 µM, the IC95 ([33]; D 11750/08, 24 h) was greater than 500 µM and the MIC [34] was 1000 µM (≈ 402 µg/mL). The IC80 [9] was greater than 500 µM, the MIC [35] was 1000 µM (≈ 402 µg/mL) and the IC95 [36] was greater than 500 µM. For the same molecule, the IC50 [37] was greater than 500 µM, the IC80 [38] was greater than 500 µM and the IC95 [39] was greater than 500 µM. The MIC [40] was 1000 µM (≈ 402 µg/mL), the IC95 ([41]; ATCC 8739, ATCC 8739, 24 h) was greater than 500 µM and the IC95 [4] was greater than 500 µM. The IC80 [10] was greater than 500 µM, the IC80 [11] was greater than 500 µM and the IC50 [42] was greater than 500 µM.
For GENTAMICIN, the IC95 [16] was 1 µM, the IC95 [26] was 0.26 µM and the IC95 [33] was 0.26 µM. For the same molecule, the IC95 [41] was 0.26 µM.

Source: ChEMBL document CHEMBL3297661, “1-Substituted-5-[(3,5-dinitrobenzyl)sulfanyl]-1H-tetrazoles and their isosteric analogs: A new class of selective antitubercular agents active against drug-susceptible and multidrug-resistant mycobacteria” (Eur J Med Chem, 2014)
